Data set [1] is described as follows: FDP levels in blood, brain and peripheral tissues after intraperitoneal administration. Type of data set: in vivo, Sprague-Dawley rats. The procedure: Adult male Sprague-Dawley rats (170-220 g) were used to determine the kinetics of fructose-1,6-diphosphate (FDP). Levels of FDP were determined in blood and tissue samples as previously described (Gerhard, Methods of Enzymatic Analysis, Vol VI, Ed. Bergmeyer, H U, Academic Press NY, pp. 342-350). All chemicals and enzymes for the assay were obtained from Sigma Chemical Co (St. Louis Mo.). Animals were administered a single dose of 0.5 g kg-1 FDP (250 mg ml-1 dissolved in 0.1M phosphate buffered saline, pH 7). In vivo studies utilized the dicalcium salt of FDP, which has a purity of ˜70%. […] At the designated time, animals were anesthetized with 1 g kg-1 urethane. After deep anesthesia, whole blood was obtained from a cardiac puncture. One ml of whole blood was added to 5 ml of perchloric acid ([…]) and mixed. After centrifugation at 3,500 rev min-1 for 10 min at 4° C., the supernatant was removed and set aside. The sediment was re-suspended in 1 ml of the perchloric acid solution and 1 ml of distilled water and centrifuged. The resulting supernatant was combined with the first one and the pH was adjusted to 3.5 with potassium carbonate (5 mol l-1). The final volume was brought to 7 ml and the solution was allowed to sit in ice for 15 min. The supernatant was used for determination of FDP levels.
Immediately after removal of the whole blood sample, the rat was perfused through the heart with ice-cold 0.01M phosphate buffered saline. Tissue samples from liver, kidney, skeletal muscle (from thigh) and intra-abdominal fat were obtained and then the brain was removed and dissected into hippocampus, cerebral cortex, cerebellum and rest of brain. […] All tissue samples were weighed and then homogenized in 5 ml of ice-cold perchloric acid (0.6 mol l-1) as quickly as possible. The homogenates were then treated was described above for whole blood.
Actual levels of FDP were determined by monitoring absorbance of reduced nicotinamide adenine dinucleotide (NADH) and treating the sample with aldolase (EC 4.1.2.13, 45 units mg-1 diluted 1:27 with distilled water), the enzyme which cleaves FDP into dihydroxyacetone phosphate (DAP) and D-glyceraldehyde 3-phosphate (GAP). DAP and GAP are interconverted by the enzyme triosephosphate isomerase (TIM, EC 5.3.3.1, 5290 units mg-1 diluted 1:120 with distilled water). Glycerol-3-phosphate dehydrogenase (GDH, EC 1.1.1.8, 252 units mg-1 diluted 1:100 with distilled water) catalyzes the reduction of DAP by NADH. For the FDP measurements, 1.5 ml of tetraethyl ammonium buffer (TEA, 0.4 mol l-1, pH 7.6 with EDTA 40 mmol l-1) was added to 1 ml of the sample in a 4 ml cuvette. Then 0.1 ml of 5 mmol l-1 β-NADH, 0.4 ml of distilled water and 0.01 ml of the enzymes TIM and GDH were added and the cuvette inverted to mix the solutions. After 5 min the absorbance was read 3 times at 340 nm, each reading 3 min apart. The average of these readings is the initial absorbance (Ai). This step removes any DAP or GAP in the sample and determines the baseline absorbance. Aldolase (0.01 ml) was then added and mixed to cleave FDP into DAP and GAP. Nine minutes after addition of the aldolase, the final absorbance (Af) was determined by 3 readings at 340 nm, each 6 minutes apart. The concentration of FDP in the sample was proportional to the difference in the initial and final absorbance. Two moles of NADH are oxidized for each mole of FDP. Blanks and a FDP standard sample were run in parallel with every assay. Each blank had 1.6 ml of the TEA buffer, 1.4 ml water and the mixture of TIM and GDH. For the positive control, the sample was replaced with 1 ml of a solution containing 200 μg FDP per ml of phosphate buffered saline. The trisodium salt of FDP, with a purity of >98%, was utilized for all of the positive control samples and for the standard curves. Levels of FDP in blood were determined per ml, while levels in tissue samples were determined as a function of tissue weight. […]

Data set [2] concerns spontaneous seizures after pilocarpine-induced status epilepticus. The data set is described as follows: Oral FDP against spontaneous seizures after pilocarpine-induced status epilepticus. The data set is classed as in vivo. Particulars: FDP 0.5% in drinking water. The procedure:
Animals (n=14) were treated with pilocarpine to induce status epilepticus and subsequent spontaneous seizures. Four weeks later daily observation was begun and the number of seizures per day was determined for at least 6 days. The mean number of seizures per day over a 6 day period was determined for each animal and this was normalized to 100%. Half of the animals then had FDP added to the drinking water at a concentration of 0.5%. The number of seizures on each day was determined for each animal and calculated as percent of the baseline. The mean (±SEM) across animals in each treatment group was then calculated and plotted as a function of the days of treatment. […] Overall, the data was analyzed with a 2-way ANOVA comparing drug treatment against time and baseline rate of seizures. […] Post-hoc analysis determined that specifically on day 9 and 10 (*) the control was different than FDP-treated. Thus, oral administration of FDP has anticonvulsant activity against the generalized tonic-clonic seizures that are observed after pilocarpine-induced status epilepticus.

As for `O=C(COP(=O)(O)O)[C@@H](O)[C@H](O)[C@H](O)COP(=O)(O)O` [F1,6BP, Fructose-1,6-bisphosphate], in data set [1] (0.5 g kg-1 ip), the “FDP level in the brain at 12 hours vs levels at 1 and 2 hours” value is “not significantly different”; the “time of peak FDP levels in blood” value amounted to 2 h; the “time of peak FDP levels in the brain” value lay within 1 to 2 h. Further, in data set [1] (0.5 g kg-1 ip, 1 hour), the “FDP levels in blood vs control” value is “significant increase”. Besides, in data set [1] (0.5 g kg-1 ip, 12 hours), the “FDP level in blood compared to control values” was “significantly elevated”; the “FDP level in blood compared to the peak levels at 2 hours” value is given as “significantly decreased”; the “FDP levels in liver, kidney, muscle and fat” value is on record as “returned to near baseline”. Also, the “FDP levels in the brain vs control” value in data set [1] (0.5 g kg-1 ip, 36 hours) is “remained significantly elevated”. Also, the “FDP levels in blood” value in data set [1] (0.5 g kg-1 ip, by 6 hours) is recorded as “fallen more than halfway back to baseline”. Moreover, the “increase in FDP at 1 hour, all tissues measured” value in data set [1] (0.5 g kg-1 ip, liver, kidney, skeletal muscle and fat, n=6) is “around 0.2 mg g-1”. For the same compound, in data set [1] (0.5 g kg-1 ip, n=6), the “increase in FDP at 1 hour, kidney” value came out at 0.26 mg/g; the “increase in FDP at 1 hour, liver” value turned out to be 0.17 mg/g; the “increase in FDP at 1 hour, muscle” value turned out to be 0.17 mg/g. Besides, in data set [1] (single dose 0.5 g kg-1 ip), the “time at which an increase of FDP levels in blood was first seen” value came to 30 min and the “time out to which FDP levels in blood remained elevated” value stood at 72 h. In data set [2] (2-way ANOVA), the “seizures per day (percent of baseline) vs non-treatment control group” value was “significantly different”. Moreover, in data set [2] (7 animals), the “animals having a seizure by day 7” value came out at 1.

The values above are taken from patent US20100197610A1, “FRUCTOSE 1, 6 BISPHOSPHATE - A NOVEL ANTICONVULSANT DRUG” (Baylor College of Medicine, priority 2007, published 2010).
